Measured values reported in PMC8113459, “Selective inhibition of cullin 3 neddylation through covalent targeting DCN1 protects mice from acetaminophen-induced liver toxicity” (Nature Communications, 2021).
Several values for one entry are separate records, joined by “and”; a condition that tells them apart may be missing. Equal values may be shown once.

System: mice
Test: 14-day toxicity study in mice
Type: in vivo, mouse
Conditions: for AdrenalGlands / Brain / Epidimydes (paired) / Heart / KidneyL / KidneyR / Liver / Spleen / Testes (paired) / Thymus: organ weight of individual male mouse, vehicle 20% PCP, in g (unit assumed); for AdrenalGlands / Brain / Epidimydes (paired) / Heart / KidneyL / KidneyR / Liver / Spleen / Testes (paired) / Thymus / RelGonads / Relative KidneyL / RelativeHeart / RelativeKidneyR / RelativeLiver / RelativeSpleen / RelativeThymus / RelAdrenGl / RelBrain / RelEpid: 50 mg/kg, 14 day; for RelGonads / Relative KidneyL / RelativeHeart / RelativeKidneyR / RelativeLiver / RelativeSpleen / RelativeThymus / RelAdrenGl / RelBrain / RelEpid: organ weight relative to whole animal, individual male mouse; for RelAdrenGl / RelBrain / RelEpid: in % (unit assumed)
Protocol: We evaluated DI-1859 for its potential toxicity in immunocompetent mice with daily, 50 mg/kg, intraperitoneal (IP) dosing for 14 consecutive days (Supplementary Table 3).
Supplementary Table 3. Overview Toxicity Study design DI-1859 study.
Group # # of Mice Drug Vol./ Test Article Treatment Diluent
(male/female) Route mouse dose Schedule

[1] = mice, 50 mg/kg IP qD(1-14), mean ± s.d., n=5
[2] = serum, mice, 50 mg/kg IP qD(1-14), mean ± s.d., n=5

How did the Platelets [1] turn out when `C=C(CN(C)C)C(=O)NC[C@@H](NC(=O)[C@H](Cc1nc2ccc(C(C)C)cc2s1)NC(=O)CC)C1CCCCC1` [DI-1859] was run?
Its Platelets is 585.6 ± 354.1 10e3/uL.

And the RBC [1]?
The RBC was 8.36 ± 0.67 10e6/ul.

And the RDW [1]?
The RDW was 17.12 ± 0.43%.

And the “Relative organ weight, Adrenal glands (paired)” value [1]?
Its value is 0.02 ± 0.01 % of body weight.

And the “Relative organ weight, Brain” value [1]?
The value was 1.76 ± 0.07 % of body weight.

What about the “Relative organ weight, Epididymis (paired)” value [1] of the same compound?
Its value is 0.35 ± 0.05 % of body weight.

What about the “Relative organ weight, Heart” value [1] of the same compound?
The value was 0.45 ± 0.02 % of body weight.

What about the “Relative organ weight, L kidney” value [1] of the same compound?
Its value is 0.71 ± 0.05 % of body weight.

And the “Relative organ weight, Liver” value [1]?
Its value is 6.19 ± 0.19 % of body weight.

And the “Relative organ weight, R kidney” value [1]?
Its value is 0.78 ± 0.04 % of body weight.

And the “Relative organ weight, Spleen” value [1]?
Its value is 0.28 ± 0.04 % of body weight.

What about the “Relative organ weight, Testes (paired)” value [1] of the same compound?
The value was 0.86 ± 0.09 % of body weight.

And the “Relative organ weight, Thymus” value [1]?
The value was 0.16 ± 0.11 % of body weight.

What about the WBC [1] of the same compound?
The WBC was 6.868 ± 3.993 10e3/ul.

And the “Microscopic finding, Epididymis: Sperm granuloma” value (mice, 50 mg/kg IP, 14 days)?
Its value is 0/10.

What about the “Microscopic finding, Liver: Necrosis, random” value (mice, 50 mg/kg IP, 14 days) of the same compound?
Its value is 0/5.

And the “Microscopic findings, Adrenal Glands” value (mice, 50 mg/kg IP, 14 days)?
Its value is 0/8.

What about the “Microscopic findings, Cecum” value (mice, 50 mg/kg IP, 14 days) of the same compound?
Its value is 0/5.

What about the “Microscopic findings, Colon” value (mice, 50 mg/kg IP, 14 days) of the same compound?
The value was 0/5.

What about the “Microscopic findings, Heart” value (mice, 50 mg/kg IP, 14 days) of the same compound?
Its value is 0/5.

What about the “Microscopic findings, Kidneys” value (mice, 50 mg/kg IP, 14 days) of the same compound?
Its value is 0/10.

What about the “Microscopic findings, Lung” value (mice, 50 mg/kg IP, 14 days) of the same compound?
Its value is 0/5.

What about the “Microscopic findings, Mesenteric lymph node” value (mice, 50 mg/kg IP, 14 days) of the same compound?
The value was 0/5.

What about the “Microscopic findings, Pancreas” value (mice, 50 mg/kg IP, 14 days) of the same compound?
Its value is 0/5.

What about the “Microscopic findings, Small intestine” value (mice, 50 mg/kg IP, 14 days) of the same compound?
Its value is 0/5.

What about the “Microscopic findings, Spleen” value (mice, 50 mg/kg IP, 14 days) of the same compound?
The value was 0/5.

What about the “Microscopic findings, Sternal bone marrow” value (mice, 50 mg/kg IP, 14 days) of the same compound?
The value was 0/5.

And the “Microscopic findings, Stomach” value (mice, 50 mg/kg IP, 14 days)?
Its value is 0/5.

And the “Microscopic findings, Thymus” value (mice, 50 mg/kg IP, 14 days)?
Its value is 0/5.

What about the “Microscopic findings, Urinary bladder” value (mice, 50 mg/kg IP, 14 days) of the same compound?
The value was 0/5.

And the AdrenalGlands?
The AdrenalGlands was 0.007.

And the Brain?
The Brain was 0.448.

What about the “Epidimydes (paired)” value of the same compound?
Its value is 0.106.

What about the Heart of the same compound?
The Heart was 0.104.

And the KidneyL?
Its KidneyL is 0.187.

What about the KidneyR of the same compound?
The KidneyR was 0.192.

And the Liver?
The Liver was 1.500.

And the Spleen?
Its Spleen is 0.075.

And the “Testes (paired)” value?
The value was 0.230.

And the Thymus?
The Thymus was 0.025.

And the AdrenalGlands (listed as DI-1589, 50 mg/kg)?
Its AdrenalGlands is 0.005 and 0.010.

And the Brain (listed as DI-1589, 50 mg/kg)?
The Brain was 0.465 and 0.450 and 0.445 and 0.462.

And the “Epidimydes (paired)” value (listed as DI-1589, 50 mg/kg)?
Its value is 0.091 and 0.076 and 0.086 and 0.084.

And the Heart (listed as DI-1589, 50 mg/kg)?
Its Heart is 0.120 and 0.111 and 0.127 and 0.122.

What about the KidneyL (listed as DI-1589, 50 mg/kg) of the same compound?
Its KidneyL is 0.188 and 0.165 and 0.173 and 0.199.

And the KidneyR (listed as DI-1589, 50 mg/kg)?
The KidneyR was 0.201 and 0.208 and 0.193 and 0.207.

And the Liver (listed as DI-1589, 50 mg/kg)?
Its Liver is 1.540 and 1.722 and 1.680.

What about the Spleen (listed as DI-1589, 50 mg/kg) of the same compound?
The Spleen was 0.063 and 0.074 and 0.062 and 0.093.

And the “Testes (paired)” value (listed as DI-1589, 50 mg/kg)?
The value was 0.224 and 0.227 and 0.237 and 0.193.

And the Thymus (listed as DI-1589, 50 mg/kg)?
The Thymus was 0.088 and 0.032 and 0.029 and 0.028.

What about the RelGonads of the same compound?
Its RelGonads is 0.935.

And the “Relative KidneyL” value?
The value was 0.760.

What about the RelativeHeart of the same compound?
The RelativeHeart was 0.423.

And the RelativeKidneyR?
The RelativeKidneyR was 0.780.

And the RelativeLiver?
Its RelativeLiver is 6.098.

What about the RelativeSpleen of the same compound?
The RelativeSpleen was 0.305.

What about the RelativeThymus of the same compound?
The RelativeThymus was 0.102.

And the RelAdrenGl?
Its RelAdrenGl is 0.028.

And the RelBrain?
The RelBrain was 1.821.

What about the RelEpid of the same compound?
The RelEpid was 0.431.

What about the RelGonads (listed as DI-1589, 50 mg/kg) of the same compound?
Its RelGonads is 0.885 and 0.901 and 0.898 and 0.704.

What about the “Relative KidneyL” value (listed as DI-1589, 50 mg/kg) of the same compound?
The value was 0.743 and 0.655 and 0.726.

And the RelativeHeart (listed as DI-1589, 50 mg/kg)?
Its RelativeHeart is 0.474 and 0.440 and 0.481 and 0.445.

What about the RelativeKidneyR (listed as DI-1589, 50 mg/kg) of the same compound?
The RelativeKidneyR was 0.794 and 0.825 and 0.731 and 0.755.

What about the RelativeLiver (listed as DI-1589, 50 mg/kg) of the same compound?
The RelativeLiver was 6.087 and 6.111 and 6.523 and 6.131.

What about the RelativeSpleen (listed as DI-1589, 50 mg/kg) of the same compound?
Its RelativeSpleen is 0.249 and 0.294 and 0.235 and 0.339.

What about the RelativeThymus (listed as DI-1589, 50 mg/kg) of the same compound?
The RelativeThymus was 0.348 and 0.127 and 0.110.

And the RelAdrenGl (listed as DI-1589, 50 mg/kg)?
Its RelAdrenGl is 0.020 and 0.019 and 0.037.

What about the RelBrain (listed as DI-1589, 50 mg/kg) of the same compound?
Its RelBrain is 1.838 and 1.786 and 1.686.

And the RelEpid (listed as DI-1589, 50 mg/kg)?
Its RelEpid is 0.360 and 0.302 and 0.326 and 0.307.

And the ALT [2]?
The ALT was 28.2 ± 4.1 U/L.

What about the AST [2] of the same compound?
Its AST is 50.8 ± 10.4 U/L.
